Measured values from US6960574B2, “Antagonists of RF-amide neuropeptides” (University of Florida, priority 2002, dated 2005).
Square brackets hold non-standard residues; d marks the D form. Peptide text beside a SMILES is read from it. * marks the point of attachment. ξ: configuration not given here. Dansyl = CN(C)c1cccc2c(S(=O)(=O)*)cccc12; ξL = CC(C)CC(N)C(=O)O

tested on: receptor labeled by the radioiodinated analogue of 1 (4, [125I]-YLFQPQRF-NH2); neuropeptide FF receptor; experiment: Competitive radioligand binding against 4 ([125I]Y8F-amide); conditions: mixture-based positional scanning; difference from averaged radioligand displacement of whole library (0); about 80 a.u. = 10-fold change in Ki

Relative Binding Index (RBI)	SMILES
11 a.u.	CN(C)c1cccc2c(S(=O)(=O)N[C@@H](CC(N)=O)C(=O)N[C@@H](Cc3ccccc3)C(=O)N[C@@H](CCCNC(=N)N)C(N)=O)cccc12 [Dansyl-NFR-amide] (Dansyl-Asn-Phe-Arg-NH2)
18 a.u.	CN(C)c1cccc2c(S(=O)(=O)N[C@@H](CC(N)=O)C(=O)NCC(=O)N[C@@H](CCCNC(=N)N)C(N)=O)cccc12 [Dansyl-NGR-amide] (Dansyl-Asn-Gly-Arg-NH2)
7 a.u.	CN(C)c1cccc2c(S(=O)(=O)N[C@@H](CC(N)=O)C(=O)N[C@@H](Cc3c[nH]cn3)C(=O)N[C@@H](CCCNC(=N)N)C(N)=O)cccc12 [Dansyl-NHR-amide] (Dansyl-Asn-His-Arg-NH2)
19 a.u.	CC[C@H](C)[C@H](NC(=O)[C@H](CC(N)=O)NS(=O)(=O)c1cccc2c(N(C)C)cccc12)C(=O)N[C@@H](CCCNC(=N)N)C(N)=O [Dansyl-NIR-amide] (Dansyl-Asn-Ile-Arg-NH2)
10 a.u.	CN(C)c1cccc2c(S(=O)(=O)N[C@@H](CC(N)=O)C(=O)N[C@@H](CCCCN)C(=O)N[C@@H](CCCNC(=N)N)C(N)=O)cccc12 [Dansyl-NKR-amide] (Dansyl-Asn-Lys-Arg-NH2)
4 a.u.	CC(C)CC(NC(=O)[C@H](CC(N)=O)NS(=O)(=O)c1cccc2c(N(C)C)cccc12)C(=O)N[C@@H](CCCNC(=N)N)C(N)=O (stereo partly drawn) [Dansyl-NLR-amide] (Dansyl-Asn-[ξL]-Arg-NH2)
13 a.u.	CSCC[C@H](NC(=O)[C@H](CC(N)=O)NS(=O)(=O)c1cccc2c(N(C)C)cccc12)C(=O)N[C@@H](CCCNC(=N)N)C(N)=O [Dansyl-NMR-amide] (Dansyl-Asn-Met-Arg-NH2)
14 a.u.	CN(C)c1cccc2c(S(=O)(=O)N[C@@H](CC(N)=O)C(=O)N[C@@H](CC(N)=O)C(=O)N[C@@H](CCCNC(=N)N)C(N)=O)cccc12 [Dansyl-NNR-amide] (Dansyl-Asn-Asn-Arg-NH2)
16 a.u.	CN(C)c1cccc2c(S(=O)(=O)N[C@@H](CC(N)=O)C(=O)N3CCC[C@H]3C(=O)N[C@@H](CCCNC(=N)N)C(N)=O)cccc12 [Dansyl-NPR-amide] (Dansyl-Asn-Pro-Arg-NH2)
26 a.u.	CN(C)c1cccc2c(S(=O)(=O)N[C@@H](CC(N)=O)C(=O)N[C@@H](CCC(N)=O)C(=O)N[C@@H](CCCNC(=N)N)C(N)=O)cccc12 [Dansyl-NQR-amide] (Dansyl-Asn-Gln-Arg-NH2)
11 a.u.	CN(C)c1cccc2c(S(=O)(=O)N[C@@H](CC(N)=O)C(=O)N[C@@H](CCCNC(=N)N)C(=O)N[C@@H](CCCNC(=N)N)C(N)=O)cccc12 [Dansyl-NRR-amide] (Dansyl-Asn-Arg-Arg-NH2)
33 a.u.	CN(C)c1cccc2c(S(=O)(=O)N[C@@H](CC(N)=O)C(=O)N[C@@H](CO)C(=O)N[C@@H](CCCNC(=N)N)C(N)=O)cccc12 [Dansyl-NSR-amide] (Dansyl-Asn-Ser-Arg-NH2)
18 a.u.	C[C@@H](O)[C@H](NC(=O)[C@H](CC(N)=O)NS(=O)(=O)c1cccc2c(N(C)C)cccc12)C(=O)N[C@@H](CCCNC(=N)N)C(N)=O [Dansyl-NTR-amide] (Dansyl-Asn-Thr-Arg-NH2)
8 a.u.	CC(C)[C@H](NC(=O)[C@H](CC(N)=O)NS(=O)(=O)c1cccc2c(N(C)C)cccc12)C(=O)N[C@@H](CCCNC(=N)N)C(N)=O [Dansyl-NVR-amide] (Dansyl-Asn-Val-Arg-NH2)
22 a.u.	CN(C)c1cccc2c(S(=O)(=O)N[C@@H](CC(N)=O)C(=O)N[C@@H](Cc3c[nH]c4ccccc34)C(=O)N[C@@H](CCCNC(=N)N)C(N)=O)cccc12 [Dansyl-NWR-amide] (Dansyl-Asn-Trp-Arg-NH2)
12 a.u.	CN(C)c1cccc2c(S(=O)(=O)N[C@@H](CC(N)=O)C(=O)N[C@@H](Cc3ccc(O)cc3)C(=O)N[C@@H](CCCNC(=N)N)C(N)=O)cccc12 [Dansyl-NYR-amide] (Dansyl-Asn-Tyr-Arg-NH2)
−97 a.u.	C[C@H](NC(=O)[C@@H]1CCCN1S(=O)(=O)c1cccc2c(N(C)C)cccc12)C(=O)N[C@@H](CCCNC(=N)N)C(N)=O [Dansyl-PAR-amide] (Dansyl-Pro-Ala-Arg-NH2)
−66 a.u.	CN(C)c1cccc2c(S(=O)(=O)N3CCC[C@H]3C(=O)N[C@@H](CC(=O)O)C(=O)N[C@@H](CCCNC(=N)N)C(N)=O)cccc12 [Dansyl-PDR-amide] (Dansyl-Pro-Asp-Arg-NH2)
−48 a.u.	CN(C)c1cccc2c(S(=O)(=O)N3CCC[C@H]3C(=O)N[C@@H](CCC(=O)O)C(=O)N[C@@H](CCCNC(=N)N)C(N)=O)cccc12 [Dansyl-PER-amide] (Dansyl-Pro-Glu-Arg-NH2)
−49 a.u.	CN(C)c1cccc2c(S(=O)(=O)N3CCC[C@H]3C(=O)N[C@@H](Cc3ccccc3)C(=O)N[C@@H](CCCNC(=N)N)C(N)=O)cccc12 [Dansyl-PFR-amide] (Dansyl-Pro-Phe-Arg-NH2)
−43 a.u.	CN(C)c1cccc2c(S(=O)(=O)N3CCC[C@H]3C(=O)NCC(=O)N[C@@H](CCCNC(=N)N)C(N)=O)cccc12 [Dansyl-PGR-amide] (Dansyl-Pro-Gly-Arg-NH2)
−54 a.u.	CN(C)c1cccc2c(S(=O)(=O)N3CCC[C@H]3C(=O)N[C@@H](Cc3cnc[nH]3)C(=O)N[C@@H](CCCNC(=N)N)C(N)=O)cccc12 [Dansyl-PHR-amide] (Dansyl-Pro-His-Arg-NH2)
−41 a.u.	CC[C@H](C)[C@H](NC(=O)[C@@H]1CCCN1S(=O)(=O)c1cccc2c(N(C)C)cccc12)C(=O)N[C@@H](CCCNC(=N)N)C(N)=O [Dansyl-PIR-amide] (Dansyl-Pro-Ile-Arg-NH2)
−50 a.u.	CN(C)c1cccc2c(S(=O)(=O)N3CCC[C@H]3C(=O)N[C@@H](CCCCN)C(=O)N[C@@H](CCCNC(=N)N)C(N)=O)cccc12 [Dansyl-PKR-amide] (Dansyl-Pro-Lys-Arg-NH2)
−56 a.u.	CC(C)C[C@H](NC(=O)[C@@H]1CCCN1S(=O)(=O)c1cccc2c(N(C)C)cccc12)C(=O)N[C@@H](CCCNC(=N)N)C(N)=O [Dansyl-PLR-amide] (Dansyl-Pro-Leu-Arg-NH2)
−48 a.u.	CSCC[C@H](NC(=O)[C@@H]1CCCN1S(=O)(=O)c1cccc2c(N(C)C)cccc12)C(=O)N[C@@H](CCCNC(=N)N)C(N)=O [Dansyl-PMR-amide] (Dansyl-Pro-Met-Arg-NH2)
−47 a.u.	CN(C)c1cccc2c(S(=O)(=O)N3CCC[C@H]3C(=O)N[C@@H](CC(N)=O)C(=O)N[C@@H](CCCNC(=N)N)C(N)=O)cccc12 [Dansyl-PNR-amide] (Dansyl-Pro-Asn-Arg-NH2)
−45 a.u.	CN(C)c1cccc2c(S(=O)(=O)N3CCC[C@H]3C(=O)N3CCC[C@H]3C(=O)N[C@@H](CCCNC(=N)N)C(N)=O)cccc12 [Dansyl-PPR-amide] (Dansyl-Pro-Pro-Arg-NH2)
−49 a.u.	CN(C)c1cccc2c(S(=O)(=O)N3CCC[C@H]3C(=O)N[C@@H](CCCNC(=N)N)C(=O)N[C@@H](CCCNC(=N)N)C(N)=O)cccc12 [Dansyl-PRR-amide]
−27 a.u.	CN(C)c1cccc2c(S(=O)(=O)N3CCC[C@H]3C(=O)N[C@@H](CO)C(=O)N[C@@H](CCCNC(=N)N)C(N)=O)cccc12 [Dansyl-PSR-amide] (Dansyl-Pro-Ser-Arg-NH2)
